Data set [1] concerns PCSK9. Nature of the data set: PCSK9 secretion from cultured and primary hepatocytes (ELISA of medium). As to conditions: ELISA of medium. Format: cell-based, human, mouse. The procedure:
(§1) HuH7 and HepG2 cells were routinely grown in complete Dulbecco's Modified Eagle's Medium (Gibco, Thermofisher Scientific) supplemented with 10% fetal bovine serum (Sigma-Aldrich) and 100 U/ml of penicillin and streptomycin (Sigma-Aldrich). […] All cell treatments were carried out for 24 h unless otherwise stated. Cells were transfected with a cocktail consisting of plasmid DNA (1 μg), X-tremeGENE HP (3 μl; Thermofisher Scientific) and opti-MEM (100 μl; Thermofischer Scientific) per 1 ml complete medium containing plated cells. Human PCSK9 was overexpressed using the bicistronic pIRES-EGFP plasmid; calnexin using the mPA-GFP-N1 plasmid. To block the expression of GRP78 and CD36, siGENOME smartpool siRNA was purchased from GE Dharmacon (M-008198-02 and L-010206-00-0005 respectively) and transfected using lipofectamine RNAiMAX as per manufacturer's protocol.
(§2) Secreted PCSK9 levels were assessed directly in cell culture medium of cells grown in FBS-free medium for 24 h or in the serum isolated from either mice or human subjects. Mouse PCSK9 was measured using the Quantikinine® ELISA kit (#MCP900, R&D Systems) and human PCSK9 using the PCSK9 Quantikinine® ELISA kit (#DCP900, R&D Systems). Serum ApoB levels were also quantified using ELISAs (#DAPB00, R&D Systems). Serum samples were diluted as per manufacturer's instructions.
All animal studies were carried out in 8 h-fasted male wild-type, Pcsk9^−/− or Ampkβ1^−/− mice on the C57BL/6J background. CF (25-100 mg/kg-8 h) and CDN (50 mg/kg) treatments were administered via intraperitoneal injection unless specified otherwise. Primary mouse hepatocytes were isolated using a two-step process with EGTA ([…] in HEPES buffer, Sigma Aldrich) and collagenase (0.05% in HEPES buffer, Sigma Aldrich) in 12-week-old male mice on the C57BL/6J background. Cells were then washed, centrifuged, and plated following isolation in cell strainers. Hepatosure® 100-donor pooled primary human hepatocytes were purchased from Xenotech. Primary hepatocytes were regularly grown in William's E medium (Gibco, Thermo Fisher Scientific) containing 10% fetal bovine serum, 100 IU/ml penicillin, and 100 µg/ml streptomycin.
(In general: An ELISA detects its analyte on a solid surface through an enzyme-linked reagent.)

Data set [2] concerns ER stress markers (GRP78, ATF4, pPERK, IRE1α, sXBP1, ATF6). Briefly: ER stress / UPR readouts in hepatocytes. Format: cell-based, human. The settings on record: HuH7; with TG 100 nM. Here is the method: (§3) Cells were washed in phosphate-buffered saline (PBS), lysed in 4× SDS-PAGE lysis buffer and separated on 7-10% polyacrylamide gels in denaturing conditions. Gels were transferred to nitrocellulose membranes using the BioRad mini trans-blot system, blocked in 5% skim milk in tris-buffered saline (TBS) for 1 h and incubated in primary antibody overnight for 16 h at 4° C. Membranes were then exposed to horse radish peroxidase conjugated secondary antibodies and visualized using EZ-ECL chemiluminescent reagent (Froggabio). Band intensities were quantified using ImageJ software ([…]) against membranes reprobed for housekeeping proteins.
Following treatment, live cells were incubated in complete DMEM containing 5 μM Thioflavin-T (ThT; Thermofisher Scientific) for 15 minutes. Cells were then fixed in 4% paraformaldehyde and mounted with permafluor. Fluorescent staining was visualized using the EVOS FL colour system at either 20 or 40× magnification.
(§4) RNA purification/isolation was performed using RNeasy mini kits (Qiagen) and normalized to 2 μg RNA using a NanoDrop® spectrophotometer. Samples were then reverse transcribed into cDNA using Superscript Vilo cDNA Synthesis kit (Thermofisher Scientific). Real-time PCR was executed with Fast SYBR Green (Thermo Fisher Scientific) using the ΔΔct method on the ViiA7 real-time PCR platform (Thermofisher Scientific).
Because ER Ca^2+ depletion induces a compensatory unfolded protein response (UPR), it was also postulated that CF may attenuate UPR marker expression by increasing ER Ca^2+ levels. […] Reactive oxygen species production, a process known to occur during conditions of ER stress, was also attenuated by CF (FIG. 9 H). […] While increasing the protein binding ability of chaperones, such as GRP78, CF also attenuates SREBP2-driven gene expression (FIG. 7 L).

The subject of data set [3] is PCSK9. Nature of the data set: PCSK9 expression in hepatocytes (immunoblot, real-time PCR). It counts as cell-based, human, mouse. As to conditions: HuH7; ryanodine 10 μM, CDN 100 μM, 2 APB 50 μM; presence or absence of TG; 24 h. Here is the method: as §1, §3, §4
Cultured immortalized hepatocytes known to express and secrete PCSK9 (Lebeau, P., et al., 2017), including HuH7 and HepG2 cells, as well as primary mouse- and human-hepatocytes (PMH and PHH, respectively), were treated with CF for 24 h and assessed for PCSK9 expression via immunoblots and real-time PCR (FIG. 1 A to D). […] Given that sterol deprivation represents another well-established promoter of SREBP2 activation (Lebeau, P., et al., 2017), cells were also treated with CF in the presence and absence of U18666A (U18) that depletes intracellular sterols. […] Next, HepG2 cells were treated with an increasing dose of CF.

Data set [4] concerns PCSK9. Nature of the data set: Secreted PCSK9 levels in HepG2 cells (ELISA). As to conditions: for PCSK9 mRNA expression and secreted levels with increasing doses / reduction of secreted PCSK9 levels compared to CF at the same dose: HepG2; for PCSK9 reduction (100 nM): Table 6, HepG2 cells, 24 h, 100 nM as printed in the cell; for efficacy for PCSK9 inhibition compared with caffeine: initial screening. Format: cell-based, human. The procedure: as §1, §2
CF, however, is a well-characterized compound having several health benefits with few known adverse effects. Achieving an optimal level of PCSK9 inhibition absent of the neuro-excitatory effect of CF, however, may be a challenge for the long-term clinical application of these findings. […] See Table 6 for the structure activity relationships of several other known xanthine-based compounds explored at varying doses in HepG2 cells for 24 h.

The next data set concerns HepG2 cells. Nature of the data set: DiI-LDL uptake assay in HepG2 cells. It counts as cell-based, human. As to conditions: for DiI-LDL cholesterol uptake: HepG2, 10 μM. The procedure:
During the last 5 h of treatment (h 19 to 24) cells were exposed to DiI-LDL (10 μg/ml) and then washed with two changes of pre-warmed (37° C.) HBSS containing 20 mM HEPES prior to analysis.
(§5) The uptake and accumulation of DiI-LDL was then quantified using a fluorescent spectrophotometer (Molecular Devices). […] Live-cell staining of the LDLR was also performed in HepG2 cells exposed to DiI-LDL (FIG. 11 D).

The test system of a further data set is SREBP2. Nature of the data set: SREBP2 expression and activation in hepatocytes (real-time PCR, SRE-GFP reporter, immunoblot, immunofluorescence). Format: cell-based, human, mouse. The settings on record: HepG2, real-time PCR. The procedure:
as §3
Cells were plated in 4-well chamber slides and incubated in complete DMEM for 24 h and exposed to treatments 24 h later for an additional 24 h. Cells were fixed with 4% paraformaldehyde for 30 minutes and washed with either non-permeabilizing, or permeabilizing PBS containing 0.025% Triton-X. Cells were then blocked with 1% bovine serum albumin (BSA) for 30 minutes and stained with anti-GFP antibody for 1 h in PBS containing 1% BSA. Afterwards, cells were washed and incubated with Alexa 488 fluorescently-labelled secondary antibodies (Thermofisher Scientific), as well as the DAPI nuclear stain. Slides were then mounted with permafluor and visualized using the EVOS FL colour imaging system at either 20 or 40× magnification.
as §4
Therefore, the effect of CF on TG-; induced SREBP2 activation was examined. […] SREBP2 activity was then examined at the protein level in HuH7 cells transfected with a plasmid encoding GFP driven by the sterol regulatory element (SRE-GFP; FIG. 2E to G). […] GFP expression was also visualized via immunofluorescent staining and quantified using ImageJ Software.

The next data set relates to LDLR. Nature of the data set: LDLR / CD36 expression in cultured hepatocytes. It counts as cell-based, human. The settings on record: HepG2, 10 μM, immunofluorescent staining.
Description: Cells were washed in phosphate-buffered saline (PBS), lysed in 4× SDS-PAGE lysis buffer and separated on 7-10% polyacrylamide gels in denaturing conditions. […] Membranes were then exposed to horse radish peroxidase conjugated secondary antibodies and visualized using EZ-ECL chemiluminescent reagent (Froggabio). Band intensities were quantified using ImageJ software ([…]) against membranes reprobed for housekeeping proteins.
Slides were then mounted with permafluor and visualized using the EVOS FL colour imaging system at either 20 or 40× magnification.
as §4, §5

The next data set relates to HepG2 hepatocytes. Briefly: LDH cytotoxicity assay in HepG2 hepatocytes. It counts as cell-based, human. The settings on record: cultured HepG2 hepatocytes. Here is the method: Secreted PCSK9 levels were assessed using ELISAs and mRNA transcript via real-time PCR. […] Secreted PCSK9, as well as PCSK9 mRNA and SREBP2 mRNA were assessed in these cells. (E) The cytotoxicity of these agents was examined using an LDH assay. […] (G) The uptake of DiI-LDL was also quantified in these cells using a spectrophotometer. Values are presented as the mean and error bars as SD. *, p<0.05 vs. vehicle; NS, non-significant.

Consider `NCCOB(c1ccccc1)c1ccccc1` [2 APB, 2-APB], for which the “PCSK9 secretion with Ca2+-modulating agents” value with PCSK9 [1] is reported as “blocked PCSK9 secretion”. In data set [2], the “TG-induced GRP78 expression” value was “blocked TG-induced expression”. For the same compound, the “SREBP2 and PCSK9 mRNA transcript level” value with PCSK9 [3] was “blocked SREBP2 and PCSK9 at the mRNA transcript level”.

With `Cn1c(=O)c2c(nc(/C=C/c3cccc(Cl)c3)n2C)n(C)c1=O` [8CC, 8-(3-Chlorostyryl) CF], the “PCSK9 mRNA expression and secreted levels with increasing doses” value in the data set with PCSK9 [4] is on record as “dose-dependent reduction”.

For `Cn1c(=O)c2[nH]c(C3CCCC3)nc2n(C)c1=O` [8CD, 8-cyclopentyl-1,3-dimethylxanthine], in the data set on PCSK9 [4], the “PCSK9 mRNA expression and secreted levels with increasing doses” value is “dose-dependent reduction”.

Turning to `Cn1c(=O)c2[nH]c(-c3ccncc3)nc2n(C)c1=O` [I-9], in the data set with PCSK9 [4], the “PCSK9 reduction (100 nM)” value is 0.86 (100 nM).

As for `Cn1c(=O)c2[nH]c(-c3ccc([N+](=O)[O-])cc3)nc2n(C)c1=O` [I-10], in the data set on PCSK9 [4], the “PCSK9 reduction (100 nM)” value was 0.93 (100 nM).

In the case of `Cn1c(=O)c2[nH]c(-c3cc(F)c(F)cc3F)nc2n(C)c1=O` [Ia-1], in the data set with HepG2 cells, the DiI-LDL cholesterol uptake entry was “significant increase”. Further, the “PCSK9 and SREBP2 mRNA” value in the data set on SREBP2 is recorded as “antagonism of SREBP2 reduced de novo synthesis of PCSK9”. In addition, the “cell-surface LDLR expression” value with LDLR was “significant increase in LDLR expression”. Also, the “cytotoxicity (LDH assay)” value in the data set on HepG2 hepatocytes is listed as “did not exhibit cytotoxic properties”. Moreover, in the data set on PCSK9 [4], the “reduction of secreted PCSK9 levels compared to CF at the same dose” value was 2 fold and the “efficacy for PCSK9 inhibition compared with caffeine” value is “significantly greater efficacy for PCSK9 inhibition than caffeine”.

As to `Cn1c(=O)c2[nH]c(-c3ccc([N+](=O)[O-])o3)nc2n(C)c1=O` [Ia-7], in the data set with HepG2 cells, the DiI-LDL cholesterol uptake result was “significant increase”. In addition, in the data set on SREBP2, the “PCSK9 and SREBP2 mRNA” value is on record as “antagonism of SREBP2 reduced de novo synthesis of PCSK9”. Besides, the “cell-surface LDLR expression” value with LDLR is on record as “significant increase in LDLR expression”. Moreover, in the data set with HepG2 hepatocytes, the “cytotoxicity (LDH assay)” value is “did not exhibit cytotoxic properties”. Also, in the data set with PCSK9 [4], the “reduction of secreted PCSK9 levels compared to CF at the same dose” value came out at 2 fold and the “efficacy for PCSK9 inhibition compared with caffeine” value was “significantly greater efficacy for PCSK9 inhibition than caffeine”.

As for `CCCn1c(=O)[nH]c2nc(-c3ccc(S(=O)(=O)N4CCN(c5ccc(Cl)cc5)CC4)cc3)[nH]c2c1=O` [PSB603], the “PCSK9 mRNA expression and secreted levels with increasing doses” value in the data set with PCSK9 [4] is reported as “dose-dependent reduction”.

Consider `CCN(CC)CCO[C@H]1CC[C@@]2(C)C(=CC[C@@H]3[C@@H]2CC[C@]2(C)C(=O)CC[C@@H]32)C1` [U18, U18666A], for which the “LDLc (DiI-LDL) uptake” value in the data set with HepG2 cells (HepG2, 24 h treatment, DiI-LDL 5 h) is on record as “reduced LDLc uptake”. Besides, the “PCSK9 secretion with Ca2+-modulating agents” value in the data set with PCSK9 [1] is reported as “increased PCSK9 secretion”.

With `Cn1c(=O)[nH]c2ncn(C)c2c1=O` [paraxanthine], the “PCSK9 mRNA expression and secreted levels with increasing doses” value in the data set on PCSK9 [4] is listed as “dose-dependent reduction”.

For `CCCCCCCC/C=C\CCCCCCCC(=O)ON1C(=O)CC(S(=O)(=O)O)C1=O` (stereo not shown) [sulfosuccinimidyl oleate], the “effect of CD36 inhibition on CF-mediated DiI-LDL uptake” value in the data set with HepG2 cells (HepG2) was “failed to affect CF-mediated DiI-LDL uptake”.

For `Cn1cnc2c1c(=O)[nH]c(=O)n2C` [theobromine], in the data set with PCSK9 [4], the “PCSK9 mRNA expression and secreted levels with increasing doses” value was “dose-dependent reduction”.

For the origin of these results see patent publication US20260151398A1, “COMPOUNDS FOR REDUCING CHOLESTEROL AND TREATING LIVER AND KIDNEY DISEASE” (McMaster University, priority 2021, published 2026).
